These results are taken from US20100160369A1, “S1P1 Agonists and Methods of Making And Using” (EXELIXIS, INC., priority 2008, published 2010).

Read-outs that look alike come from different tables or passages of the source.

Usually EC50 stands for the midpoint of the concentration-response curve.

This assay deals with S1P1 (Homo sapiens, UniProt P21453). Description: CNG cAMP Assay (Assay 1). Format: cell-based. Also noted: host or cells: HEK293 cells expressing the CNG channel. Put shortly:
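HEK293 cells expressing CNG channel and S1P1, membrane-potential dye loaded; compounds (top 10 μM, 10-point 3-fold, 1.8% DMSO) added with 25 μM Ro 20-1724, 500 nM NECA and 10 nM S1P for 90 min. T90/T0 fluorescence (Ex 350/Em 590 nm) normalised to NECA-alone vs DMSO; EC50 fitted.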

Setting [1] is: footnote 1: Relative EC50 was measured, read-out: Assay 1 Relative EC50.

S1P1, sequence (P21453 whole entry): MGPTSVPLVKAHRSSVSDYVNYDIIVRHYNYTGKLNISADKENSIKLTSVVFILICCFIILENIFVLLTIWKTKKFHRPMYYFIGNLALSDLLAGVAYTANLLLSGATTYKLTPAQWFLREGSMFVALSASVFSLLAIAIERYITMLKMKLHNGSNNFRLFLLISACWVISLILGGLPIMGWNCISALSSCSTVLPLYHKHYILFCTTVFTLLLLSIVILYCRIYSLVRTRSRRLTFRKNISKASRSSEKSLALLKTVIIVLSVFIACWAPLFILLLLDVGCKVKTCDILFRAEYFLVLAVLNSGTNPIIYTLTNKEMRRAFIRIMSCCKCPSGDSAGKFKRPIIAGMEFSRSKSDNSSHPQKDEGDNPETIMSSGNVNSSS

Regarding `Oc1ccc(-c2noc(-c3cn4cc(C(F)(F)F)cc(Cl)c4n3)n2)c(Cl)c1` [Example 187, 3-chloro-4-{5-[8-chloro-6-(trifluoromethyl)imidazo[1,2-a]pyridin-2-yl]-1,2,4-oxadiazol-3-yl}phenol], for the setting “read-out: Assay 1 EC50”, the EC50 was no more than 0.1 µM. Same read-out and setting: as for `N[C@@H](COc1ccc(-c2noc(-c3cn4cc(C(F)(F)F)cc(Cl)c4n3)n2)c(Cl)c1)C(=O)O` [Example 188, O-(3-chloro-4-{5-[8-chloro-6-(trifluoromethyl)imidazo[1,2-a]pyridin-2-yl]-1,2,4-oxadiazol-3-yl}phenyl)serine], the figure is 0.1 to 0.5 µM; as for `CC(Cc1ccc(-c2noc(-c3cn4cc(C(F)(F)F)cc(Br)c4n3)n2)c(Cl)c1)C(=O)O` (stereo not drawn) [Example 189, 3-(4-{5-[8-bromo-6-(trifluoromethyl)imidazo[1,2-a]pyridin-2-yl]-1,2,4-oxadiazol-3-yl}-3-chlorophenyl)-2-methylpropanoic acid], no more than 0.1 µM.

On to `CC(Cc1ccc(-c2noc(-c3cn4cc(C(F)(F)F)cc(Cl)c4n3)n2)c(F)c1)C(=O)O` (stereo not drawn) [Example 192, 3-(4-{5-[8-chloro-6-(trifluoromethyl)imidazo[1,2-a]pyridin-2-yl]-1,2,4-oxadiazol-3-yl}-3-fluorophenyl)-2-methylpropanoic acid], for which the EC50 (read-out: Assay 1 EC50) lay within 0.1 to 0.5 µM. With `NC(CC(=O)O)c1ccc(-c2noc(-c3cn4cc(C(F)(F)F)cc(Cl)c4n3)n2)c(Cl)c1` (stereo not drawn) [Example 193, 3-amino-3-(3-chloro-4-{5-[8-chloro-6-(trifluoromethyl)imidazo[1,2-a]pyridin-2-yl]-1,2,4-oxadiazol-3-yl}phenyl)propanoic acid], for the setting “read-out: Assay 1 EC50”, the half-maximal effective concentration (EC50) lay in the range of 0.1 to 0.5 µM. Still for that read-out and setting: the figure for `NCCOc1ccc(-c2nc(-c3cn4cc(C(F)(F)F)cc(Cl)c4n3)no2)c(Cl)c1` [Example 195, 2-[(3-chloro-4-{3-[8-chloro-6-(trifluoromethyl)imidazo[1,2-a]pyridin-2-yl]-1,2,4-oxadiazol-5-yl}phenyl)oxy]ethanamine] is 0.1 to 0.5 µM; for `Oc1cc(Cl)c(-c2noc(-c3cn4cc(C(F)(F)F)cc(Br)c4n3)n2)cc1Cl` [Example 197, 4-{5-[8-bromo-6-(trifluoromethyl)imidazo[1,2-a]pyridin-2-yl]-1,2,4-oxadiazol-3-yl}-2,5-dichlorophenol] it is 0.1 to 0.5 µM; for `OCCCOc1ccc(-c2noc(-c3cn4cc(C(F)(F)F)cc(Cl)c4n3)n2)c(Cl)c1` [Example 199, 3-[(3-chloro-4-{5-[8-chloro-6-(trifluoromethyl)imidazo[1,2-a]pyridin-2-yl]-1,2,4-oxadiazol-3-yl}phenyl)oxy]propan-1-ol] it is 0.1 to 0.5 µM. Same read-out and setting: the figure for `CC(N)COc1ccc(-c2noc(-c3cn4cc(C(F)(F)F)cc(Cl)c4n3)n2)c(Cl)c1` (stereo not drawn) [Example 200, 1-[(3-chloro-4-{5-[8-chloro-6-(trifluoromethyl)imidazo[1,2-a]pyridin-2-yl]-1,2,4-oxadiazol-3-yl}phenyl)oxy]propan-2-amine] is 0.1 to 0.5 µM. As to `CC(Oc1cc(Cl)c(-c2nc(-c3cn4cc(C(F)(F)F)cc(Cl)c4n3)no2)cc1F)C(=O)O` (stereo not drawn) [Example 205, 2-[(5-chloro-4-{3-[8-chloro-6-(trifluoromethyl)imidazo[1,2-a]pyridin-2-yl]-1,2,4-oxadiazol-5-yl}-2-fluorophenyl)oxy]propanoic acid], under setting [1], the EC50 lay in the range of 0.1 to 0.5 µM. Same read-out and setting: as for `OCCN1CCC(Oc2ccc(-c3noc(-c4cn5cc(C(F)(F)F)cc(Cl)c5n4)n3)c(Cl)c2)C1` (stereo not drawn) [Example 210, 2-{3-[(3-chloro-4-{5-[8-chloro-6-(trifluoromethyl)imidazo[1,2-a]pyridin-2-yl]-1,2,4-oxadiazol-3-yl}phenyl)oxy]pyrrolidin-1-yl}ethanol], the figure is 1 to 5 µM.

Take `O=C(O)C1CC1c1ccc(-c2noc(-c3cn4cc(C(F)(F)F)cc(Cl)c4n3)n2)cc1Cl` (stereo not drawn) [Example 215, 2-(2-chloro-4-{5-[8-chloro-6-(trifluoromethyl)imidazo[1,2-a]pyridin-2-yl]-1,2,4-oxadiazol-3-yl}phenyl)cyclopropanecarboxylic acid]: the EC50 (read-out: Assay 1 EC50) is no more than 0.1 µM.

With `CC(CO)Oc1cc(Cl)c(-c2nc(-c3cn4cc(C(F)(F)F)cc(Cl)c4n3)no2)cc1F` (stereo not drawn) [Example 217, 2-[(5-chloro-4-{3-[8-chloro-6-(trifluoromethyl)imidazo[1,2-a]pyridin-2-yl]-1,2,4-oxadiazol-5-yl}-2-fluorophenyl)oxy]propan-1-ol], the concentration for a half-maximal effect (EC50) (read-out: Assay 1 EC50) is no more than 0.1 µM. The same measure, in the same setting: the figure for `CS(=O)(=O)Nc1ccc(-c2nnc(-c3cn4cc(C(F)(F)F)cc(Cl)c4n3)o2)c(Cl)c1` [Example 218, N-(3-chloro-4-{5-[8-chloro-6-(trifluoromethyl)imidazo[1,2-a]pyridin-2-yl]-1,3,4-oxadiazol-2-yl}phenyl)methanesulfonamide] is 0.1 to 0.5 µM; for `CC(CC(=O)O)c1ccc(-c2nnc(-c3cn4cc(C(F)(F)F)cc(Cl)c4n3)o2)c(Cl)c1` (stereo not drawn) [Example 219, 3-(3-chloro-4-{5-[8-chloro-6-(trifluoromethyl)imidazo[1,2-a]pyridin-2-yl]-1,3,4-oxadiazol-2-yl}phenyl)butanoic acid] it is no more than 0.1 µM. Turning to `NCC(O)COc1ccc(-c2noc(-c3cn4cc(C(F)(F)F)cc(Cl)c4n3)n2)c(Cl)c1` (stereo not drawn) [Example 223, 1-amino-3-[(3-chloro-4-{5-[8-chloro-6-(trifluoromethyl)imidazo[1,2-a]pyridin-2-yl]-1,2,4-oxadiazol-3-yl}phenyl)oxy]propan-2-ol], the EC50 (read-out: Assay 1 EC50) was no more than 0.1 µM. In the case of `Fc1cccc(F)c1-c1nc(-c2cn3cc(C(F)(F)F)cc(Cl)c3n2)no1` [Example 228, 8-chloro-2-[5-(2,6-difluorophenyl)-1,2,4-oxadiazol-3-yl]-6-(trifluoromethyl)imidazo[1,2-a]pyridine], where the note is “read-out: Assay 1 EC50”, the EC50 fell in the range of 0.1 to 0.5 µM.

In the case of `FC(F)(F)c1cc(Cl)c2nc(-c3noc(-c4ccccc4Cl)n3)cn2c1` [Example 229, 8-chloro-2-[5-(2-chlorophenyl)-1,2,4-oxadiazol-3-yl]-6-(trifluoromethyl)imidazo[1,2-a]pyridine], the EC50 (read-out: Assay 1 EC50) is no more than 0.1 µM. Same read-out and setting: the figure for `Fc1ccccc1-c1nc(-c2cn3cc(C(F)(F)F)cc(Cl)c3n2)no1` [Example 230, 8-chloro-2-[5-(2-fluorophenyl)-1,2,4-oxadiazol-3-yl]-6-(trifluoromethyl)imidazo[1,2-a]pyridine] is 0.1 to 0.5 µM. For the compound `O=C(O)C1CN(Cc2ccc(-c3nc(-c4cn5cc(C(F)(F)F)cc(Cl)c5n4)no3)cc2)C1` [Example 231, 1-[(4-{3-[8-chloro-6-(trifluoromethyl)imidazo[1,2-a]pyridin-2-yl]-1,2,4-oxadiazol-5-yl}phenyl)methyl]azetidine-3-carboxylic acid], the EC50 under setting [1] lay within 5 to 10 µM. As to `Fc1ccc(-c2nc(-c3cn4cc(C(F)(F)F)cc(Cl)c4n3)no2)c(Cl)c1` [Example 232, 8-chloro-2-[5-(2-chloro-4-fluorophenyl)-1,2,4-oxadiazol-3-yl]-6-(trifluoromethyl)imidazo[1,2-a]pyridine], the EC50 (read-out: Assay 1 EC50) lay in the range of 0.1 to 0.5 µM. For `CS(=O)(=O)Nc1cc(Cl)c(-c2nc(-c3cn4cc(C(F)(F)F)cc(Cl)c4n3)no2)cc1F` [Example 234, N-(5-chloro-4-{3-[8-chloro-6-(trifluoromethyl)imidazo[1,2-a]pyridin-2-yl]-1,2,4-oxadiazol-5-yl}-2-fluorophenyl)methanesulfonamide], under “read-out: Assay 1 EC50”, the EC50 is no more than 0.1 µM. Regarding `CS(=O)(=O)Nc1c(F)cc(-c2nc(-c3cn4cc(C(F)(F)F)cc(Cl)c4n3)no2)cc1Cl` [Example 236, N-(2-chloro-4-{3-[8-chloro-6-(trifluoromethyl)imidazo[1,2-a]pyridin-2-yl]-1,2,4-oxadiazol-5-yl}-6-fluorophenyl)methane sulfonamide], the EC50 under setting [1] was in the range of 5 to 10 µM.

On to `Cc1cc(C2CC2C(=O)O)c(F)cc1-c1nc(-c2cn3cc(C(F)(F)F)cc(Cl)c3n2)no1` (stereo not drawn) [Example 237, 2-(4-{3-[8-chloro-6-(trifluoromethyl)imidazo[1,2-a]pyridin-2-yl]-1,2,4-oxadiazol-5-yl}-2-fluoro-5-methylphenyl)cyclopropanecarboxylic acid], for which the half-maximal effective concentration (EC50) under setting [1] fell in the range of 5 to 10 µM. On to `NCC(O)COc1cc(Cl)c(-c2nnc(-c3cn4cc(C(F)(F)F)cc(Cl)c4n3)s2)cc1F` (stereo not drawn) [Example 249, 1-amino-3-[(5-chloro-4-{5-[8-chloro-6-(trifluoromethyl)imidazo[1,2-a]pyridin-2-yl]-1,3,4-thiadiazol-2-yl}-2-fluorophenyl)oxy]propan-2-ol], for which, under “read-out: Assay 1 EC50”, the 50% effective concentration (EC50) was no more than 0.1 µM. On the same count and under the same terms, the figure for `O=C(O)COc1ccc(-c2noc(-c3cn4cc(C(F)(F)F)cc(Cl)c4n3)n2)c(Cl)c1` [Example 253, [(3-chloro-4-{5-[8-chloro-6-(trifluoromethyl)imidazo[1,2-a]pyridin-2-yl]-1,2,4-oxadiazol-3-yl}phenyl)oxy]acetic acid] is 0.1 to 0.5 µM. Turning to `CC(C)(Oc1ccc(-c2noc(-c3cn4cc(C(F)(F)F)cc(Cl)c4n3)n2)c(Cl)c1)C(=O)O` [Example 254, 2-[(3-chloro-4-{5-[8-chloro-6-(trifluoromethyl)imidazo[1,2-a]pyridin-2-yl]-1,2,4-oxadiazol-3-yl}phenyl)oxy]-2-methylpropanoic acid], under setting [1], the concentration for a half-maximal effect (EC50) was 5 to 10 µM. Turning to `CC(CN)Oc1ccc(-c2noc(-c3cn4cc(C(F)(F)F)cc(Cl)c4n3)n2)c(Cl)c1` (stereo not drawn) [Example 258, 2-[(3-chloro-4-{5-[8-chloro-6-(trifluoromethyl)imidazo[1,2-a]pyridin-2-yl]-1,2,4-oxadiazol-3-yl}phenyl)oxy]propan-1-amine], under “read-out: Assay 1 EC50”, the EC50 lay in the range of 0.1 to 0.5 µM. The same measure, in the same setting: as for `Oc1cc(Cl)c(-c2noc(-c3cn4cc(C(F)(F)F)cc(Cl)c4n3)n2)cc1F` [Example 260, 5-chloro-4-{5-[8-chloro-6-(trifluoromethyl)imidazo[1,2-a]pyridin-2-yl]-1,2,4-oxadiazol-3-yl}-2-fluorophenol], the figure is no more than 0.1 µM; as for `CC(CO)Oc1c(F)cc(-c2noc(-c3cn4cc(C(F)(F)F)cc(Cl)c4n3)n2)cc1Cl` (stereo not drawn) [Example 261, 2-[(2-chloro-4-{5-[8-chloro-6-(trifluoromethyl)imidazo[1,2-a]pyridin-2-yl]-1,2,4-oxadiazol-3-yl}-6-fluorophenyl)oxy]propan-1-ol], no more than 0.1 µM.
